Laboratory results taken from patent publication US8163737B2 (Vertex Pharmaceuticals Incorporated, priority 2006, dated 2012).
pIC50, pKi: −log10 of the molar value.

Legend:
endogenous CGRP receptor = endogenous CGRP receptor (Homo sapiens, UniProt O60894+Q16602); assay: CGRP functional antagonism using SK-N-MC-BLA (4C10), β-lactamase transcriptional reporter assay; type: cell-based; conditions: SK-N-MC (4C10) cells, inhibition of β-lactamase expression in the presence of 200 pM CGRP
[1] = molecular target: T1, CGRP receptor (SK-N-MC membrane) (Homo sapiens, UniProt O60894+Q16602); assay: I125-CGRP binding displacement assay on purified SK-N-MC membrane
T1 construct: Purified SK-N-MC membrane was purchased from Perkin Elmer; purchased Perkin Elmer; host or cells: SK-N-MC membrane
T1 sequence (Q16602 23-461): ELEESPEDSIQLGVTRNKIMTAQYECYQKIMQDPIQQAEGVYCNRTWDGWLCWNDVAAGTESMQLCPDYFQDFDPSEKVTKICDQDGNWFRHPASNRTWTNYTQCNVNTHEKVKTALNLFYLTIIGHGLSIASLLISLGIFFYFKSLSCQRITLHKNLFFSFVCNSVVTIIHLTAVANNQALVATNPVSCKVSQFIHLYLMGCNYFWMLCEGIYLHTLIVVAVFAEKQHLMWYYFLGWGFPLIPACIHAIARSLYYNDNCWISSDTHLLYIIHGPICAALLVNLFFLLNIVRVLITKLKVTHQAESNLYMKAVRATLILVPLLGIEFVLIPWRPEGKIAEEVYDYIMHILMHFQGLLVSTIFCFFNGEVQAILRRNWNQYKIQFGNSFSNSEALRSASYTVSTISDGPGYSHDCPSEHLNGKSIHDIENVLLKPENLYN
T1 sequence (O60894 27-148): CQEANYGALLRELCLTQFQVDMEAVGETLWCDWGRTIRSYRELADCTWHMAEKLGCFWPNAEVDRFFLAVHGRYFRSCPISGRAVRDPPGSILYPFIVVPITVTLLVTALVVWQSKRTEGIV
Outline: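 Human SK-N-MC membranes incubated with compounds and I125-CGRP for 2 h at room temperature in 25 mM Tris-HCl pH 7.4, 5 mM MgCl2, 0.1% BSA, 0.05% Tween, then filtered and counted. Nonspecific binding defined with 1 uM unlabelled CGRP; percent displacement fitted to curves.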

Sequence of endogenous CGRP receptor (Q16602 23-461): as the sequence (Q16602 23-461) above
Sequence of endogenous CGRP receptor (O60894 27-148): as the sequence (O60894 27-148) above

| SMILES | pIC50 (endogenous CGRP receptor) | pKi [1] |
| --- | --- | --- |
| CN1CCN(c2cccc(F)c2C2SC(CC(=O)N3CCC(n4c(=O)[nH]c5ccccc54)CC3)C(=O)N2CCC(C)(C)C)CC1 (centres unmarked) [Compound 348] | 5.30 to 6.00 | < 5.30 |
| CCN1CCN(c2c(F)cccc2C2SC(CC(=O)N3CCC(n4c(=O)[nH]c5ncccc54)CC3)C(=O)N2CCC(C)(C)C)CC1 (centres unmarked) [Compound 349] | > 6.00 | > 6.00 |
| CN1CCN(c2ccc(F)cc2C2SC(CC(=O)N3CCC(n4c(=O)[nH]c5ccccc54)CC3)C(=O)N2CCC(C)(C)C)CC1 (centres unmarked) [Compound 354] | > 6.00 | > 6.00 |
| CN1CCN(c2c(Cl)cccc2C2SC(CC(=O)N3CCC(n4c(=O)[nH]c5ncccc54)CC3)C(=O)N2CCC(C)(C)C)CC1 (centres unmarked) [Compound 357] | > 6.00 | > 6.00 |
| CCCCN1CCN(c2ccccc2C2SC(CC(=O)N3CCC(N4CCc5ccccc5NC4=O)CC3)C(=O)N2CCC(C)(C)C)CC1 (centres unmarked) [Compound 365] | > 6.00 | > 6.00 |
| CC(C)(C)CCN1C(=O)C(CC(=O)N2CCC(N3Cc4ccccc4NC3=O)CC2)SC1c1ccccc1N1CCN(c2ccccc2)CC1 (centres unmarked) [Compound 367] | > 6.00 | > 6.00 |
| CC(C)(C)CCN1C(=O)C(CC(=O)N2CCC(N3Cc4ccccc4NC3=O)CC2)SC1c1ccccc1N1CCN(CCO)CC1 (centres unmarked) [Compound 371] | > 6.00 | > 6.00 |
| CN1CCN(c2ccccc2[C@@H]2S[C@](C)(CC(=O)N3CCC(N4CCc5ccccc5NC4=O)CC3)C(=O)N2CCC(C)(C)C)CC1 [Compound 375] | > 6.00 | > 6.00 |
| CC(C)(C)CCN1C(=O)C(CC(=O)N2CCC(N3CCc4ccccc4NC3=O)CC2)SC1c1cccc(F)c1N1CCN(C2CC2)CC1 (centres unmarked) [Compound 389] | > 6.00 | > 6.00 |
| CC(C)(C)CCN1C(=O)C(CC(=O)N2CCC(N3CCc4ccccc4NC3=O)CC2)SC1c1cccc(F)c1N1CCNCC1 (centres unmarked) [Compound 391] | < 5.30 | < 5.30 |
| CN1CCN(c2ccc(F)cc2[C@H]2S[C@@H](CC(=O)N3CCC(n4c(=O)[nH]c5ncccc54)CC3)C(=O)N2CCC(C)(C)C)CC1 [Compound 397] | < 5.30 | < 5.30 |
| CN(c1ccccc1C1SC(CC(=O)N2CCC(n3c(=O)[nH]c4ncccc43)CC2)C(=O)N1CCC(C)(C)C)[C@@H]1CCN(Cc2ccccc2)C1 (some centres unmarked) [Compound 402] | > 6.00 | > 6.00 |
| CN(c1ccccc1C1SC(CC(=O)N2CCC(N3CCc4ccccc4NC3=O)CC2)C(=O)N1CCC(C)(C)C)[C@H]1CCN(Cc2ccccc2)C1 (some centres unmarked) [Compound 403] | 5.30 to 6.00 | > 6.00 |
| CN(C)[C@@H]1CCN(c2ccccc2C2SC(CC(=O)N3CCC(N4CCc5ccccc5NC4=O)CC3)C(=O)N2CCC(C)(C)C)C1 (some centres unmarked) [Compound 405] | 5.30 to 6.00 | > 6.00 |
| CN(C)[C@H]1CCN(c2ccccc2C2SC(CC(=O)N3CCC(N4CCc5ccccc5NC4=O)CC3)C(=O)N2CCC(C)(C)C)C1 (some centres unmarked) [Compound 407] | > 6.00 | > 6.00 |
| CC(C)N1CCN(c2c(F)cccc2[C@@H]2S[C@@](C)(CC(=O)N3CCC(N4CCc5ccccc5NC4=O)CC3)C(=O)N2CCC(C)(C)C)CC1 [Compound 431] | > 6.00 | > 6.00 |
| CC(C)N1CCN(c2c(F)cccc2[C@H]2S[C@@](C)(CC(=O)N3CCC(N4CCc5ccccc5NC4=O)CC3)C(=O)N2CCC(C)(C)C)CC1 [Compound 432] | > 6.00 | > 6.00 |
| CC(C)(C)CCN1C(=O)[C@H](CC(=O)N2CCC(N3CC(=O)NC3=O)CC2)S[C@H]1c1cccc(F)c1N1CCN(C(C)(C)C)CC1 [Compound 447] | > 6.00 | > 6.00 |
| CC(C)(C)CCN1C(=O)[C@H](CC(=O)N2CCC(O)(c3ccc(Br)cc3)CC2)SC1c1cccc(F)c1N1CCN(C(C)(C)C)CC1 (some centres unmarked) [Compound 457] | > 6.00 | > 6.00 |
| CC(C)(C)CCN1C(=O)[C@H](CC(=O)N2CCC(N3CCc4ccccc4NC3=O)CC2)SC1c1cccc(F)c1N1CCC(O)C1 (some centres unmarked) [Compound 463] | 5.30 to 6.00 | > 6.00 |
| CC(C)(C)CCN1C(=O)[C@H](CC(=O)N2CCC(N3CCc4ccccc4NC3=O)CC2)SC1c1cccc(F)c1N1CCC(N)C1 (some centres unmarked) [Compound 471] | > 6.00 | > 6.00 |
| CN1CCN(c2ccccc2C2SC(CC(=O)N3CC(N4Cc5ccccc5NC4=O)C3)C(=O)N2CCC(C)(C)C)CC1 (centres unmarked) [Compound 477] | < 5.30 | > 6.00 |

Now from value to compound:

| pIC50 (endogenous CGRP receptor) | pKi [1] | SMILES |
| --- | --- | --- |
| > 6.00 | > 6.00 | CN1CCN(c2cccc(F)c2C2SC(CC(=O)N3CCC(n4c(=O)[nH]c5ncccc54)CC3)C(=O)N2CCC(C)(C)C)CC1 (centres unmarked) [Compound 350] |
| 5.30 to 6.00 | > 6.00 | CN1CCN(c2ccc(F)cc2C2SC(CC(=O)N3CCC(N4Cc5ccccc5NC4=O)CC3)C(=O)N2CCC(C)(C)C)CC1 (centres unmarked) [Compound 351] |
| > 6.00 | > 6.00 | CN1CCN(c2ccc(F)cc2C2SC(CC(=O)N3CCC(n4c(=O)[nH]c5ncccc54)CC3)C(=O)N2CCC(C)(C)C)CC1 (centres unmarked) [Compound 353] |
| > 6.00 | > 6.00 | CN1CCN(c2cc(F)ccc2C2SC(CC(=O)N3CCC(n4cc(-c5ccccc5)[nH]c4=O)CC3)C(=O)N2CCC(C)(C)C)CC1 (centres unmarked) [Compound 363] |
| > 6.00 | > 6.00 | CN1CCN(c2ccccc2[C@H]2S[C@](C)(CC(=O)N3CCC(n4c(=O)[nH]c5ncccc54)CC3)C(=O)N2CCC(C)(C)C)CC1 [Compound 380] |
| > 6.00 | > 6.00 | CN1CCN(c2ccc(F)cc2[C@@H]2S[C@@H](CC(=O)N3CCC(n4c(=O)[nH]c5ncccc54)CC3)C(=O)N2CCC(C)(C)C)CC1 [Compound 394] |
| < 5.30 | > 6.00 | CN(c1ccccc1C1SC(CC(=O)N2CCC(N3CCc4ccccc4NC3=O)CC2)C(=O)N1CCC(C)(C)C)[C@H]1CCN(Cc2ccccc2)C1 (some centres unmarked) [Compound 409] |
| 5.30 to 6.00 | < 5.30 | CC(C)(C)CCN1C(=O)C(CC(=O)N2CCC(N3CCc4ccccc4NC3=O)CC2)SC1c1ccccc1C1=CCNCC1 (centres unmarked) [Compound 414] |
| 5.30 to 6.00 | > 6.00 | CC(C)(C)CCN1C(=O)C(CC(=O)N2CCC(n3c(=O)[nH]c4ncccc43)CC2)SC1c1ccccc1N1CCC(O)CC1 (centres unmarked) [Compound 415] |
| > 6.00 | > 6.00 | CC(C)N1CCN(c2cccc(Cl)c2[C@H]2S[C@H](CC(=O)N3CCC(N4CCc5ccccc5NC4=O)CC3)C(=O)N2CCC(C)(C)C)CC1 [Compound 434] |
| > 6.00 | > 6.00 | CC(C)(C)CCN1C(=O)[C@H](CC(=O)N2CCC(n3c(=O)[nH]c4ncccc43)CC2)S[C@H]1c1cccc(F)c1N1CCN(C(C)(C)C)CC1 [Compound 436] |
| > 6.00 | > 6.00 | CC(C)(C)CCN1C(=O)[C@H](CC(=O)N2CCC(n3c(=O)[nH]c4ncccc43)CC2)SC1c1cccc(F)c1N1CCN(C(C)(C)C)CC1 (some centres unmarked) [Compound 437] |
| > 6.00 | > 6.00 | CC(C)N1CCN(c2c(F)cccc2[C@H]2S[C@@](C)(CC(=O)N3CCC(n4c(=O)[nH]c5ncccc54)CC3)C(=O)N2CCC(C)(C)C)CC1 [Compound 446] |
| 5.30 to 6.00 | > 6.00 | CN(C)C1CCN(c2c(F)cccc2[C@@H]2S[C@@H](CC(=O)N3CCC(n4c(=O)[nH]c5ncccc54)CC3)C(=O)N2CCC(C)(C)C)C1 (some centres unmarked) [Compound 456] |
| > 6.00 | > 6.00 | CNC1CCN(c2c(F)cccc2[C@H]2S[C@@H](CC(=O)N3CCC(n4c(=O)[nH]c5ncccc54)CC3)C(=O)N2CCC(C)(C)C)C1 (some centres unmarked) [Compound 458] |
| > 6.00 | > 6.00 | CNC1CCN(c2c(F)cccc2[C@@H]2S[C@@H](CC(=O)N3CCC(n4c(=O)[nH]c5ncccc54)CC3)C(=O)N2CCC(C)(C)C)C1 (some centres unmarked) [Compound 459] |
| > 6.00 | > 6.00 | COc1ccc(C(=O)C2CCN(C(=O)C[C@@H]3SC(c4cccc(F)c4N4CCN(C(C)(C)C)CC4)N(CCC(C)(C)C)C3=O)CC2)cc1 (some centres unmarked) [Compound 461] |
| > 6.00 | > 6.00 | CC(C)(C)CCN1C(=O)[C@H](CC(=O)N2CCC(n3c(=O)[nH]c4ncccc43)CC2)S[C@H]1c1cccc(F)c1N1CCC(O)C1 (some centres unmarked) [Compound 462] |
| > 6.00 | > 6.00 | CC(C)(C)CCN1C(=O)[C@H](CC(=O)N2CCC(N3Cc4ccccc4NC3=O)CC2)S[C@H]1c1cccc(F)c1N1CCC(O)C1 (some centres unmarked) [Compound 469] |
| > 6.00 | > 6.00 | CC(C)(C)CCN1C(=O)[C@H](CC(=O)N2CCC(n3c(=O)[nH]c4ncccc43)CC2)S[C@H]1c1cccc(F)c1N1CCC(N)C1 (some centres unmarked) [Compound 470] |
| 5.30 to 6.00 | > 6.00 | C[C@@H]1CN(c2c(F)cccc2[C@H]2S[C@@H](CC(=O)N3CCC(N4CCc5ccccc5NC4=O)CC3)C(=O)N2CCC(C)(C)C)C[C@H](C)N1 [Compound 474] |
| > 6.00 | > 6.00 | CC(C)(C)CCN1C(=O)[C@H](CC(=O)N2CCC(N3CCc4ccccc4NC3=O)CC2)SC1c1cc(F)cc(F)c1N1CCN(C(C)(C)C)CC1 (stereo partly drawn) [Compound 478, (5S)-2-(2-(4-tert-Butylpiperazin-1-yl)-3,5-difluorophenyl)-3-(3,3-dimethylbutyl)-5-(2-oxo-2-(4-(2-oxo-4,5-dihydro-1H-benzo[d][1,3]diazepin-3(2H)-yl)piperidin-1-yl)ethyl)thiazolidin-4-one] |
| 5.30 to 6.00 | > 6.00 | CC(C)(C)CCN1C(=O)[C@H](CC(=O)N2CCC(n3c(=O)[nH]c4ncccc43)CC2)SC1c1cccc(F)c1N1CCC(F)C1 (some centres unmarked) [Compound 480] |
| 5.30 to 6.00 | > 6.00 | CC(C)(C)CCN1C(=O)[C@H](CC(=O)N2CCC(N3CCc4ccccc4NC3=O)CC2)SC1c1cccc(F)c1N1CCC(F)C1 (some centres unmarked) [Compound 481] |
